Laboratory results taken from patent publication US8802664B2 (Bioproject, priority 2010, dated 2014).
Read-outs that look alike come from different tables or passages of the source.

Molecular target: T1, human H4 receptor (Homo sapiens, UniProt Q9H3N8)
T1 construct: expressed in transfected cells
Experiment: [3H]Histamine binding on membranes of CHO cells stably expressing human H4 receptor
Summary of the method: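 CHO-hH4 membranes 20 μg/well; buffer 50 mM Tris/HCl, 0.5 mM EDTA, pH 7.4; NSB: 10 μM JNJ 7777120 (BP1.2404); GF/B filtration (PEI-presoaked), 3 ice-cold washes; scintillation counting.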

T1 sequence (Q9H3N8 whole entry): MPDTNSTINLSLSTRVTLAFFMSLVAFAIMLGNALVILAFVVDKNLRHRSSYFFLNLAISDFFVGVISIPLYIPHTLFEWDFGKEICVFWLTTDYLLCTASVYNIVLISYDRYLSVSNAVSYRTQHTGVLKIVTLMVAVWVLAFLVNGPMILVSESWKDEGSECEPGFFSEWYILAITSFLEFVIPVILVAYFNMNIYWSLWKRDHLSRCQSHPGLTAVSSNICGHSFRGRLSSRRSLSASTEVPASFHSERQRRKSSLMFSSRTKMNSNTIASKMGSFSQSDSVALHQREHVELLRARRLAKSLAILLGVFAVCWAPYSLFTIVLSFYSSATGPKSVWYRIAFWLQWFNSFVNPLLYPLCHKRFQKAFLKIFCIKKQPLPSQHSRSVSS

CN1CCC(OC(c2cccc(I)c2)c2nc3ccccc3n2C)CC1 (centres unmarked) [Example 472, 2-[(3-iodophenyl)(1-methylpiperidin-4-yloxy)methyl]-1-methyl-1H-benzimidazole] showed a Ki or IC50 activity class of under 300 nM.

CN1CCC(OC(c2cccc(SCCCc3cnc[nH]3)c2)c2nc3ccccc3[nH]2)CC1 (centres unmarked) [Example 398, 2-[{3-[3-(3H-imidazol-4-yl)propylsulfanyl]phenyl}(1-methylpiperidin-4-yloxy)methyl]-1H-benzimidazole] showed a Ki or IC50 activity class of under 300 nM.

With CN1CCC(OC(c2cccc(-c3ccc(Cl)c(Cl)c3)c2)c2nc3ccccc3[nH]2)CC1 (centres unmarked) [Example 122, 2-[(3′,4′-dichlorobiphenyl-3-yl)(1-methylpiperidin-4-yloxy)methyl]-1H-benzimidazole] the Ki or IC50 activity class was under 300 nM.

With CN1CCC(OC(c2cccc(CCCCCNC(=N)N)c2)c2nc3ccccc3[nH]2)CC1 (centres unmarked) [Example 397, N-(5-{3-[(1H-benzimidazol-2-yl)(1-methylpiperidin-4-yloxy)methyl]phenyl}pentyl)guanidine] the Ki or IC50 activity class was under 300 nM.

Compound CN1CCC(OC(c2cccc(N3CC4CC(N)CC4C3)c2)c2nc3ccccc3s2)CC1 (centres unmarked) [Example 471] has a Ki or IC50 activity class of under 300 nM.

CN1CCC(OC(c2cccc(OCCN3CCCCC3)c2)c2nc3ccccc3[nH]2)CC1 (centres unmarked) [Example 356, 2-{(1-methylpiperidin-4-yloxy)[3-(2-piperidin-1-yl-ethoxy)phenyl]methyl}-1H-benzimidazole] showed a Ki or IC50 activity class of under 1000 nM.

CN1CCC(OC(c2nc3ccccc3[nH]2)c2cc(O)ccc2F)CC1 (centres unmarked) [Example 487] showed a Ki or IC50 activity class of under 30 nM.

Compound CN1CCC(OC(c2cccc(OCC3CCCN(C)C3)c2)c2nc3ccccc3s2)CC1 (centres unmarked) [Example 379, 2-[[3-(1-methylpiperidin-3-ylmethoxy)phenyl](1-methylpiperidin-4-yloxy)methyl]benzothiazole] has a Ki or IC50 activity class of under 1000 nM.

In the case of CN1CCC(NC(c2cccc(OCCF)c2)c2nc3ccccc3[nH]2)CC1 (centres unmarked) [Example 180, {(1H-benzimidazol-2-yl)[3-(2-fluoro-ethoxy)phenyl]methyl}(1-methylpiperidin-4-yl)amine], the Ki or IC50 activity class is reported as under 30 nM.

In the case of CN1CCC(OC(c2cccc(N3CCC(F)C3)c2)c2nc3ccccc3s2)CC1 (centres unmarked) [Example 454], the Ki or IC50 activity class (human H4 receptor, evaluated in the GTPγ[35S] assay or in the [3H]histamine binding assay (not stated which per compound), Ki or IC50 class) is reported as under 30 nM.

For CN1CCC(OC(c2cccc(-c3ccc(NC(=O)OC(C)(C)C)cc3)c2)c2nc3ccccc3s2)CC1 (centres unmarked) [Example 143, {3′-[benzothiazol-2-yl(1-methylpiperidin-4-yloxy)methyl]biphenyl-4-yl}carbamic acid tert-butyl ester], the Ki or IC50 activity class was under 300 nM.

CN1CCC(OC(c2cccc(OCCCCCNCC(=O)OC(C)(C)C)c2)c2nc3ccccc3s2)CC1 (centres unmarked) [Example 375, (5-{3-[benzothiazol-2-yl(1-methylpiperidin-4-yloxy)methyl]phenoxy}pentylamino)acetic acid tert-butyl ester] showed a Ki or IC50 activity class of under 1000 nM.

CCOc1cccc(C(OC2CCN(C)CC2)c2nc3ccccc3s2)c1 (centres unmarked) [Example 47, 2-[(3-ethoxyphenyl)(1-methylpiperidin-4-yloxy)methyl]benzothiazole] was tested, and the Ki or IC50 activity class was under 30 nM.

In the case of CN1CCC(NC(c2cccc(Br)c2)c2nc3ccccc3s2)CC1 (centres unmarked) [Example 82, [benzothiazol-2-yl(3-bromophenyl)methyl](1-methylpiperidin-4-yl)amine], the Ki or IC50 activity class is reported as under 300 nM.

CC(C)NC(=S)NCCSc1cccc(C(OC2CCN(C)CC2)c2nc3ccccc3[nH]2)c1 (centres unmarked) [Example 347, 1-(2-{3-[(1H-benzimidazol-2-yl)(1-methylpiperidin-4-yloxy)methyl]phenylsulfanyl}ethyl)-3-isopropylthiourea] was tested, and the Ki or IC50 activity class was under 1000 nM.

In the case of CN1CCC(OC(c2nc3ccccc3[nH]2)c2cc(Cl)ccc2F)CC1 (centres unmarked) [Example 496], the Ki or IC50 activity class is reported as under 300 nM.

CN1CCC(OC(c2cccc(-c3ccccc3F)c2)c2nc3ccccc3s2)CC1 (centres unmarked) [Example 137, 2-[(2′-fluorobiphenyl-3-yl)(1-methylpiperidin-4-yloxy)methyl]benzothiazole] was tested, and the Ki or IC50 activity class was under 300 nM.

CN1CCC(OC(c2cccc(SCCCCN)c2)c2nc3cc(F)ccc3[nH]2)CC1 (centres unmarked) [Example 440, 4-{3-[(5-fluoro-1H-benzimidazol-2-yl)(1-methylpiperidin-4-yloxy)methyl]phenylsulfanyl}butylamine] gave a Ki or IC50 activity class of under 30 nM.

Work on CN1CCC(OC(c2cccc(C3=CCNCC3)c2)c2nc3ccccc3[nH]2)CC1 (centres unmarked) [Example 338, 2-{(1-methylpiperidin-4-yloxy)[3-(1,2,3,6-tetrahydro-pyridin-4-yl)phenyl]methyl}-1H-benzimidazole] yielded a Ki or IC50 activity class of under 300 nM.

Work on CN1CCC(OC(c2cccs2)c2nc3ccccc3s2)CC1 (centres unmarked) [Example 13, 2-[(1-methylpiperidin-4-yloxy)thiophen-2-ylmethyl]benzothiazole] yielded a Ki or IC50 activity class of under 300 nM.

Work on CN1CCC(OC(c2cccc(C=CC#N)c2)c2nc3ccccc3s2)CC1 (centres unmarked) [Example 217, 3-{3-[benzothiazol-2-yl(1-methylpiperidin-4-yloxy)methyl]phenyl}acrylonitrile] yielded a Ki or IC50 activity class of under 300 nM.

Work on CN1CCC(OC(c2cccc(-c3ccc(C(F)(F)F)cc3)c2)c2nc3ccccc3s2)CC1 (centres unmarked) [Example 140, 2-[(1-methylpiperidin-4-yloxy)(4′-trifluoromethylbiphenyl-3-yl)methyl]benzothiazole] yielded a Ki or IC50 activity class of under 300 nM.

CN1CCC(OC(c2cccc(OCCNCC(=O)OC(C)(C)C)c2)c2nc3ccccc3[nH]2)CC1 (centres unmarked) [Example 361, (2-{3-[(1H-benzimidazol-2-yl)(1-methylpiperidin-4-yloxy)methyl]phenoxy}ethylamino)acetic acid tert-butyl ester] was tested, and the Ki or IC50 activity class was under 1000 nM.

CN1CCC(COC(c2cccc(C#CCCCN)c2)c2nc3cc(F)ccc3[nH]2)C1 (centres unmarked) [Example 462] was tested, and the Ki or IC50 activity class was under 300 nM.

Work on CN1CCC(OC(c2cccc(C#CCCCCN)c2)c2nc3ccccc3n2C)CC1 (centres unmarked) [Example 480, 6-{3-[(1-methyl-1H-benzimidazol-2-yl)(1-methylpiperidin-4-yloxy)methyl]phenyl}hex-5-ynylamine] yielded a Ki or IC50 activity class of under 300 nM.

For Cc1cc(F)c(C(OC2CCN(C)CC2)c2nc3ccccc3s2)c(F)c1 (centres unmarked) [Example 531], the Ki or IC50 activity class was under 30 nM.

Brc1cccc(C(OCC2CNC2)c2nc3ccccc3[nH]2)c1 (centres unmarked) [Example 502] was tested, and the Ki or IC50 activity class was under 1000 nM.

Cc1cc(F)c(C(OC2CCN(C)CC2)c2nc3ccccc3o2)c(F)c1 (centres unmarked) [Example 536] was tested, and the Ki or IC50 activity class was under 30 nM.

Compound COc1cccc(-c2cccc(C(OC3CCN(C)CC3)c3nc4ccccc4s3)c2)c1 (centres unmarked) [Example 99, 2-[(3′-methoxybiphenyl-3-yl)(1-methylpiperidin-4-yloxy)methyl]benzothiazole] has a Ki or IC50 activity class of under 300 nM.

For CCCOc1cccc(C(NC2CCN(C)CC2)c2nc3ccccc3s2)c1 (single isomer, unassigned) [Example 56, [benzothiazol-2-yl(3-propoxyphenyl)methyl](1-methylpiperidin-4-yl)amine], the Ki or IC50 activity class was under 300 nM.

With CN1CCC(OC(c2cc(F)cc(F)c2)c2nc3ccccc3s2)CC1 (centres unmarked) [Example 15, 2-[(3,5-difluorophenyl)(1-methyl-piperidin-4-yloxy)methyl]benzothiazole] the Ki or IC50 activity class was under 300 nM.

CN1CCC(OC(c2cccc(CCCCCCNC(=N)N)c2)c2nc3ccccc3[nH]2)CC1 (centres unmarked) [Example 355, N-(6-{3-[(1H-benzimidazol-2-yl)(1-methylpiperidin-4-yloxy)methyl]phenyl}hexyl)guanidine] showed a Ki or IC50 activity class of under 300 nM.

Work on CN1CCC(OC(c2cccc(N3CC(O)C3)c2)c2nc3ccccc3s2)CC1 (centres unmarked) [Example 403, 1-{3-[benzothiazol-2-yl(1-methylpiperidin-4-yloxy)methyl]phenyl}azetidin-3-ol] yielded a Ki or IC50 activity class of under 300 nM.

CN1CCC(OC(c2cccc(OCc3cccc(N)c3)c2)c2nc3ccccc3s2)CC1 (centres unmarked) [Example 228, 3-{3-[benzothiazol-2-yl(1-methylpiperidin-4-yloxy)methyl]phenoxymethyl}phenylamine] was tested, and the Ki or IC50 activity class was under 30 nM.

Cc1cc(F)cc(C(OC2CCN(C)CC2)c2nc3ccccc3s2)c1 (centres unmarked) [Example 38, 2-[(3-fluoro-5-methylphenyl)(1-methylpiperidin-4-yloxy)methyl]benzothiazole] gave a Ki or IC50 activity class of under 300 nM.

CN1CCC(OC(c2nc3ccccc3[nH]2)c2cc(C(F)(F)F)ccc2F)CC1 (centres unmarked) [Example 498] was tested, and the Ki or IC50 activity class was under 300 nM.

CN1CCC(OC(c2cccc(N3CC(N(C)C)C3)c2)c2nc3ccccc3s2)CC1 (centres unmarked) [Example 450] showed a Ki or IC50 activity class of under 1000 nM.

For Cc1ccc2sc(C(OC3CCN(C)CC3)c3ccccc3)nc2c1 (centres unmarked) [Example 29, 5-methyl-2-[(1-methylpiperidin-4-yloxy)phenylmethyl]benzothiazole], the Ki or IC50 activity class was under 1000 nM.

CN1CCC(OC(c2cccc(OCCCCO)c2)c2nc3ccccc3s2)CC1 (centres unmarked) [Example 266, 4-{3-[benzothiazol-2-yl(1-methylpiperidin-4-yloxy)methyl]phenoxy}butan-1-ol] gave a Ki or IC50 activity class of under 300 nM.

With CN1CCC(OC(c2cccc(C#CCCCN)c2)c2nc3ccccc3[nH]2)CC1 (centres unmarked) [Example 294, 5-{3-[(1H-benzimidazol-2-yl)(1-methylpiperidin-4-yloxy)methyl]phenyl}pent-4-ynylamine] the Ki or IC50 activity class was under 30 nM.

Cc1cccc(C(OC2CCN(C)CC2)c2nc3ccccc3s2)c1 (centres unmarked) [Example 8, 2-[(1-methylpiperidin-4-yloxy)(m-tolyl)methyl]benzothiazole] was tested, and the Ki or IC50 activity class was under 30 nM.

Work on COc1ccc(C(OC2CCN(C)CC2)c2nc3ccccc3s2)cc1 (centres unmarked) [Example 14, 2-[(4-methoxyphenyl)(1-methylpiperidin-4-yloxy)methyl]benzothiazole] yielded a Ki or IC50 activity class of under 1000 nM.

Cc1cc(C(NC2CCN(C)CC2)c2nc3ccccc3s2)ccc1F (centres unmarked) [Example 35, [benzothiazol-2-yl(4-fluoro-3-methyl-phenyl)methyl](1-methylpiperidin-4-yl)amine] showed a Ki or IC50 activity class of under 1000 nM.

With CN1CC(COC(c2cccc(SCCCCN)c2)c2nc3ccccc3[nH]2)C1 (centres unmarked) [Example 507, 4-{3-[(1H-benzimidazol-2-yl)(1-methylazetidin-3-ylmethoxy)methyl]phenylsulfanyl}butylamine] the Ki or IC50 activity class was under 30 nM.
